Columns and labels:
[1] = test system: Male C57BL/6 Cr mice; assay: Test Case 10: mouse piloerection test; assay type: in vivo; conditions: 10 mg/kg i.v., Score 0
Method: Male C57BL/6 Cr mice (Japan SLC) are used. The dissolved compound is administered rapidly via a caudal vein. The animal is placed on the observation stand 5, 15, 30, and 60 minutes after administration, and the state of piloerection is observed. The state of piloerection is evaluated by the following 7-level scoring system according to the examples by the method of Irwin (Psychopharmacologia 1968, 13; 222-257).
Scoring system: “Score 0”: No piloerection at all; “Score 1”: Slight piloerection (piloerection on part of the body such as the back or neck); “Score 2”: Moderate piloerection (piloerection over the entire body); “Score 3”: Marked piloerection (piloerection over the entire body, conspicuous to the extent that the skin can be seen).
“Score 0.5” is between “Score 0” and “Score 1” “Score 1.5” is between […]. “Score 2.5” is between “Score 2” and “Score 3.”

[2] = target: T1, human β2-adrenergic receptor (Homo sapiens, UniProt P07550); assay: Test Case 3-B: human β2-adrenergic receptor agonist activity; assay type: cell-based; conditions: read-out: β2 receptor I.A.
T1 construct: expressed in transfected cells; host or cells: CHO (Chinese hamster ovary) cells, pcDNA3
Method: (§1) Measurement of Human β2-Adrenergic Receptor Agonist Activity
The human β2-adrenergic receptor agonist activity is measured by the same method as in Test Case 1-B using CHO (Chinese hamster ovary) cells transfected by a human β2 gene inserted in pcDNA3 (Invitrogen).

[3] = target: T2, human β3-adrenergic receptor (Homo sapiens, UniProt P13945); assay: Test Case 1-B: human β3-adrenergic receptor agonist activity (cAMP-Screen, 96-well); assay type: cell-based; conditions: for Emax: 0.5 h, read-out: β3 receptor I.A.; for EC50: CHO cells, cAMP
T2 construct: A full-length human β3 gene is obtained from a human genomic library (made by Clontech) using this as the probe; expressed in transfected cells; host or cells: CHO (Chinese hamster ovary) cells, pcDNA3
Summary of the method: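 CHO cells stably transfected with full-length human β3 gene, serum-starved 15 min, then exposed to serially diluted compound in Ham's F-12 with 100 mmol/L HEPES and 1 mmol/L IBMX (diluent concentrations) for 30 min. Cells lysed 30 min at 37 °C; cAMP quantified by cAMP-Screen immunoassay.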

[4] = test system: pentobarbital-anesthetized rats; assay: Test Case 9: effects on the blood pressure and heart rate in pentobarbital-anesthetized rats; assay type: in vivo, rat; conditions: anesthetized male SD rats; 3 mg/kg intravenous over 30 seconds; maximum change, mean±standard deviation
Method: Effects on the blood pressure and heart rate in pentobarbital-anesthetized rats
The blood pressure and heart rate of rats under pentobarbital anesthesia are measured, and the effects of rapid intravenous administration of the test compound on the blood pressure and heart rate can be studied. After anesthetizing male SD rats (Japan SLC) by intraperitoneal administration of 50 mg/kg of pentobarbital sodium (Tokyo Chemical Industry Co., Ltd.), 25 mg/kg of pentobarbital sodium is administered subcutaneously as maintenance anesthesia. The left femoral vein is exposed and stripped, and a SP10 polyethylene tube filled with saline (connected to a three-way stopcock via a ¼ venous needle) is inserted and left in place in the vein.
The inside of the left thigh is cut, and the femoral artery is exposed and stripped. A polyethylene tube filled with heparinized physiological saline solution (SP31, connected to a three-way stopcock via a Terumo injection needle 22G) is inserted and connected to a pressure transducer. The blood pressure is measured from the pressure transducer via a strain pressure amplifier (AP-641G, Nihon Kohden). The heart rate is measured with the pulse wave of the blood pressure as a trigger via a heart rate counter (AT-601G, Nihon Kohden). The blood pressure, mean blood pressure, and heart rate are output to a recorder and recorded. Furthermore, the mean blood pressure is recorded via the strain pressure amplifier (AP-641G) using the formula {[…]}.
Specifically, 3 mg/mL of test compound is administered rapidly at a volume of 1 mL/kg. The relative value (%) of the values at each point in time versus the mean blood pressure and heart rate before beginning administration are determined for each individual, and the mean±standard deviation of the relative value (%) at the time of the maximum change in each parameter is determined.

[5] = target: T3, human α1A-adrenergic receptor (Homo sapiens, UniProt P35348); assay: Test Case 4-B: human α1A-adrenergic receptor agonist activity (Cerep cellular functional GPCR, alpha 1A); assay type: cell-based; set-up: expressed in transfected cells; conditions: concentration 10 μM; for α1 receptor % of Control Agonist Response, Control; Epinephrine: epinephrine = 100%; for α1 receptor % of Control Agonist Response, Control; Norepinephrine: norepinephrine = 100%
T3 sequence (P35348 1-466): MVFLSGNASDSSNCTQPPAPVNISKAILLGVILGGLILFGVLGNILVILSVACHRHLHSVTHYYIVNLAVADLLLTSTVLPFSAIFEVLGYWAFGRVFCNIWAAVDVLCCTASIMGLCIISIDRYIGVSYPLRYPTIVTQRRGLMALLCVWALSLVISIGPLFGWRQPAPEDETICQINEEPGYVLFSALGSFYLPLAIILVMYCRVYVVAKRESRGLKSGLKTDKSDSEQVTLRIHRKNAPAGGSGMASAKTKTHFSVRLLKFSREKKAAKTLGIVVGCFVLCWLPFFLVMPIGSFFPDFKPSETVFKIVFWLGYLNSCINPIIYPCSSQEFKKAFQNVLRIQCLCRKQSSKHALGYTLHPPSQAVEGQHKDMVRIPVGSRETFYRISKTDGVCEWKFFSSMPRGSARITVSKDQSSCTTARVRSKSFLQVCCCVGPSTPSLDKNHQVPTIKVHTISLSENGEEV
Source text: Measurement of Human α1A-Adrenergic Receptor Agonist Activity
The human α1A-adrenergic receptor agonist activity] can be measured by […] Functional GPCR·Gs, alpha 1A (Ref. 722-36a) listed on p. 52 of the Cerep 2008 CATALOG IN VITRO PHARMACOLOGY & ADME-TOX.

[6] = target: T4, human β1-adrenergic receptor (Homo sapiens, UniProt P08588); assay: Test Case 2-C: human β1-adrenergic receptor agonist activity (Cerep cellular functional GPCR, beta 1); assay type: cell-based; conditions: concentration 10 μM, isoproterenol = 100%
T4 construct: expressed in transfected cells; host or cells: CHO (Chinese hamster ovary) cells, pcDNA3
Source text: Measurement of Human β1-Adrenergic Receptor Agonist Activity

[7] = target: T1, human β2-adrenergic receptor; assay: Test Case 3-C: human β2-adrenergic receptor agonist activity (Cerep cellular functional GPCR, beta 2); assay type: cell-based; conditions: concentration 10 μM, isoproterenol = 100%
Source text: as §1

[8] = test system: common marmoset isolated bladder smooth muscle; assay: Test Case 7: common marmoset isolated bladder smooth muscle relaxation test; conditions: KCl 40 mmol/L contracted marmoset bladder, papaverine 10^−4 mol/L relaxation = 100%
Method: Common Marmoset Isolated Bladder Smooth Muscle Relaxation Test
After sacrificing common marmosets (Japan CLEA) by exsanguination, they are laparotomized and the urinary bladder is removed. […] The specimens are loaded with one gram of resting tension and stabilized for 30 or more minutes. After the resting tension of the specimen has stabilized, a final concentration of 40 mmol/L of KCl is added repeatedly, and it is confirmed that the contraction in response to KCl has basically become constant. […] Taking that relaxation response as 100%, the relaxation rate (%) at test compound concentrations of […] is calculated.

[9] = target: T2, human β3-adrenergic receptor; assay: Test Case 1-A: human β3-adrenergic receptor agonist activity (cAMP-EIA, 24-well); assay type: cell-based; conditions: maximum response of isoproterenol = 100%
Method: Measurement of Human β3-Adrenergic Receptor Agonist Activity
The human β3-adrenergic receptor agonist activity is measured using CHO (Chinese hamster ovary) cells transfected by a human β3 gene inserted in pcDNA3 (Invitrogen). […] A full-length human β3 gene is obtained from a human genomic library (made by Clontech) using this as the probe. These cells are cultured in Ham's F-12 medium containing 10% fetal calf serum and 400 μg/mL genectin (Invitrogen). These cells are sown in 24-well plates to make 1×10^5 cells/well. After culturing for approximately 20 hours, they are allowed to stand for two hours in serum-free Ham's F-12 medium. […] After culturing for 30 minutes, the medium is removed, and 0.1 mL of 1 N NaOH is added and allowed to stand for 20 minutes. A quantity of 0.1 mL of 1 N acetic acid is added. After stirring, centrifugation is performed, and cAMP is assayed using a cAMP-EIA kit (made by Cayman).

T1 sequence (P07550 whole entry): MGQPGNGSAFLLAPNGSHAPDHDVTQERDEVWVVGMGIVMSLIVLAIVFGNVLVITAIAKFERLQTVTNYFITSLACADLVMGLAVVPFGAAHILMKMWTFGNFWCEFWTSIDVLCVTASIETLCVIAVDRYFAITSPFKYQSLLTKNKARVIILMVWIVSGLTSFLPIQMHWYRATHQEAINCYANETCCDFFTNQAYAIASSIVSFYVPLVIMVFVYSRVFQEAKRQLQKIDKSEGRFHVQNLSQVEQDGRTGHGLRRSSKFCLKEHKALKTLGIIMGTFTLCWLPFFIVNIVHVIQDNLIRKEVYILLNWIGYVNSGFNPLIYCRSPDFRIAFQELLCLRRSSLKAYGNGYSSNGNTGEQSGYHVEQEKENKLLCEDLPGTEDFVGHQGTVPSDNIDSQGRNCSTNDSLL
T2 sequence (P13945 whole entry): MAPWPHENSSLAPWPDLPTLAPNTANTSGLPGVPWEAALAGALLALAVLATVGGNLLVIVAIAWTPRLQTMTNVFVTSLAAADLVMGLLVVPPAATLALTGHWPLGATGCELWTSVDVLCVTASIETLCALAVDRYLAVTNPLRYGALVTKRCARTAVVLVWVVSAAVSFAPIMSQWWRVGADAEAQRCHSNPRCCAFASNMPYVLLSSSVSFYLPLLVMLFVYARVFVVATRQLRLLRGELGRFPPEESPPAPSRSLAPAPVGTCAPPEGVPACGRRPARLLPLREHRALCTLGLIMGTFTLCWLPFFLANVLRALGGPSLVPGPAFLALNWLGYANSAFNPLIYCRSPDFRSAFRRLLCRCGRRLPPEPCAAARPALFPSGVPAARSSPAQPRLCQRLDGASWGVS
T4 sequence (P08588 whole entry): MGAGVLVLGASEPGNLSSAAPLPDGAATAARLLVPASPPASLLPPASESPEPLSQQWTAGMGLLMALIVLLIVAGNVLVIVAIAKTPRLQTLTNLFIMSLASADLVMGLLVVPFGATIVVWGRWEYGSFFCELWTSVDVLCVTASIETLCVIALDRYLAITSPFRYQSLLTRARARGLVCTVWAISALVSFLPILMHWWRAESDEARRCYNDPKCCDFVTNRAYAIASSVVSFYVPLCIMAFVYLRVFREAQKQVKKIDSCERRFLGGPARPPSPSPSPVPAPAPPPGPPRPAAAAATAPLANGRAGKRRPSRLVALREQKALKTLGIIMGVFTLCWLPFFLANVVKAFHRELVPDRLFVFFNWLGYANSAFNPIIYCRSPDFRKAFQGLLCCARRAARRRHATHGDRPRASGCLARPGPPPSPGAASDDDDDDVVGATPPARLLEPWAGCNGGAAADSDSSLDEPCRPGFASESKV

SMILES	number of experimental animals matching Score 0 (no piloerection) ([1]; n=4, observation time 5 min)	number of experimental animals matching Score 0 (no piloerection) ([1]; n=4, observation time 15 min)	number of experimental animals matching Score 0 (no piloerection) ([1]; n=4, observation time 30 min)	number of experimental animals matching Score 0 (no piloerection) ([1]; n=4, observation time 60 min)	Emax [2]	Emax [3]	EC50 ([3]; Test Case 1-B)	increase in MBP (%) [4]	α1 receptor % of Control Agonist Response, Control; Epinephrine [5]	α1 receptor % of Control Agonist Response, Control; Norepinephrine [5]	β1 receptor % of Control Agonist Response [6]	β2 receptor % of Control Agonist Response [7]	β3 receptor I.A. ([3]; Test Case 1-B, maximum response of isoproterenol = 100%)	relaxant activity (%) 10^−4M ([8]; 10^−4 M)	relaxant activity (%) 10^−5M ([8]; 10^−5 M)	β3 receptor I.A. [9]
CCc1n[nH]c2cc(OCCNC[C@H](O)c3cccc(NS(=O)(=O)c4cnn(C)c4)c3)ccc12 [ex135, (R)-N-(3-(2-(2-(3-ethylindazol-6-yloxy)ethylamino)-1-hydroxyethyl)phenyl)-1-methylpyrazole-4-sulfonamide]	4	4	4	4	7%	105%	29 nM	5.6 ± 1.2%	0%	0%	3.7%	1.3%				
CC(C)NCC(O)c1ccc(O)c(O)c1 (stereo not shown) [isoproterenol, reference compound]													100%	54.4%	50.6%	100%
CCc1n[nH]c2cc(OCCNC[C@H](O)c3cccc(NS(=O)(=O)c4cn[nH]c4)c3)ccc12 [ex149]	4	4	4	4	0%	100%	12 nM	2.1 ± 1.9%	8.5%	7.3%	5.2%	0.2%				

— US20120225909A1, “INDAZOLE ANALOG” (priority 2009, published 2012)
